The IC50 is the concentration at which inhibition is half-maximal. A lower IC50 goes with higher potency. As usually defined, the solubility is how much of the substance goes into solution per volume. Read a low solubility as little dissolved substance.

In brackets after ≈: the same amount, converted by molar mass.

This is an account of results in ChEMBL document CHEMBL1130970, “Design and synthesis of a water-soluble taxol analogue: taxol-sialyl conjugate” (Bioorg Med Chem Lett, 1998).

Data set [1] is filed under the species Sus scrofa. The experiment in a line: Concentration that induces microtubule assembly (tubulin obtained from porcine brain) by 50% in the absence of GTP. The format is functional.
Data set [2] relates to A-427. The data set can be described thus: Inhibitory concentration in human lung carcinoma A427 cell line. The format is functional, cell-based.
The subject of data set [3] is A-427. The data set can be described thus: Inhibitory concentration in human lung carcinoma A427/VCR cell line. The format is functional, cell-based.
A short description of data set [4]: Solubility was determined. The format is physicochemical.

As to `CC(=O)O[C@H]1C(=O)[C@@]2(C)[C@H]([C@H](OC(=O)c3ccccc3)[C@]3(O)C[C@H](OC(=O)[C@H](O)[C@@H](NC(=O)c4ccccc4)c4ccccc4)C(C)=C1C3(C)C)[C@]1(OC(C)=O)CO[C@@H]1C[C@@H]2O` [PACLITAXEL], the ED50 in data set [1] came to 860 nM.

Take `CC(=O)NC1C(O)CC(OCCOCCOCCNC(=O)O[C@H]2C[C@H]3OC[C@@]3(OC(C)=O)C3[C@H](OC(=O)c4ccccc4)[C@]4(O)C[C@H](OC(=O)[C@H](O)[C@@H](NC(=O)c5ccccc5)c5ccccc5)C(C)=C([C@@H](OC(C)=O)C(=O)[C@@]32C)C4(C)C)(C(=O)O)OC1[C@H](O)[C@@H](O)CO` (stereo not given in full): the IC50 in data set [2] stood at 100 nM; in data set [3], 1000 nM. Also, the solubility in data set [4] amounted to 28 mg/mL (≈ 21.2 mM). In data set [1], the ED50 is 3860 nM.
